Several values for one entry are separate records, joined by “and”; a condition that tells them apart may be missing. Equal entries are not always repeated.
Key:
[1] = system: Candida albicans ATCC MYA-4788; experiment: Mouse Candida vaginal infection model; assay type: in vivo; conditions: female C3H/NeH mice, 20 mpk intraperitoneally once a day for 3 days after ABT, CFU at 96 hours of infection, P<0.001
Method: • Experimental animals: female C3H/NeH mice, 6 to 8 weeks old, 19 to 21 g, n=5 to 6; • microbial pathogen: Candida albicans ATCC MYA-4788; • inoculation level and route: 5.0E+05 CFU/mouse, infected by vaginal instillation; • test sample: WX004: 20 mpk
Treatment: ABT was administered orally 22 hours after infection, and the test compound was injected intraperitoneally 24 hours after infection. In this experiment, the Vehicle group and the test compound group were set up, with a total of 3 days of administration, once a day, and a administration volume of 10 mL/kg.
Observation indicators: After 96 hours of infection in each group of mice, the vaginal tissue and vaginal lavage fluid of the mice were taken for CFU counting. Plasma samples were collected at 0.25 h, 0.5 h, 1 h, 2 h, 4 h, 8 h, and 24 h after the last administration.

[2] = system: Candida albicans ATCC MYA-2876; experiment: Mouse candidemia efficacy model; assay type: in vivo; conditions: female CD-1 mice infected with Candida albicans ATCC MYA-2876
Method: Experimental animals: female CD-1 mice, 7 weeks old, 27 to 29 g, n=5 or 8;
microbial pathogen: Candida albicans ATCC MYA-2876;
inoculation level and route: 2.0 to 4.0E+05 CFU/mouse, infected by tail vein injection;
treatment: The treatment started at 1 hour after infection. Firstly, ABT was administered orally, and 2 hours later, the test compound was injected intraperitoneally once a day for 7 days in total, with an administration volume of 10 mL/kg.
Observation indicators: Changes in body weight and mortality within 7 days after infection in each group of mice.

[3] = Pharmacokinetic evaluation in dogs (IV, PO); assay type: in vivo, beagle dogs; conditions: beagle, plasma, Dog
From the text: Experimental Purpose: To evaluate the druggability of the compounds by measuring its pharmacokinetic properties in different animal species.
Experimental materials: CD-1 mice, Sprague-Dawley strain rats, beagle dogs, and crab-eating macaques.
Drug preparation: An appropriate amount of sample was weighed and then prepared into a clear or suspended solution.
Experimental procedure: The animal pharmacokinetic characteristics after intravenous injection and oral administration of the compound were tested using a standard protocol. The candidate compound was prepared as a clear solution (for intravenous injection) or a homogeneous suspension (for oral administration) during the experiment and administered to the animals as a single dose. Whole blood samples were collected at 0.083, 0.25, 0.5, 1, 2, 4, 8, and 24 hours, centrifuged at 3200 g for 10 minutes to separate the supernatant to obtain plasma samples. The plasma concentration was quantitatively analyzed by LC-MS/MS analysis method and pharmacokinetic parameters were calculated, such as peak concentration, peak time, clearance rate, half-life, area under the drug-time curve, etc.

[4] = system: Aspergillus flavus ATCC MYA-1004; experiment: Minimum effective concentration (MEC) test against fungi; assay type: cell-based; conditions: change of hyphae morphology by microscope, 48 hours, three independent experiments
Method: (§1) To test the minimum inhibitory concentration (MIC) and minimum effective concentration (MEC) of the drug against fungi.
(§2) Aspergillus fumigatus ATCC-MYA-4609; Aspergillus flavus ATCC MYA-1004
(§3) Test medium: RPMI1640 (containing 0.165 M MOPS, pH7.0)
(§4) On the day of the experiment, the compound in the bottle was dissolved in 100% DMSO to a stock solution concentration of 6.24 mg/mL. Then, the mixture was 10-fold diluted with DMSO to 0.624 mg/mL for use.
(§5) A 2-fold gradient dilution of the compound solution (0.624 mg/mL) was performed using DMSO on a 96-microwell plate (V-bottom) to obtain 100× working solutions (wells 1 to 11). 624, 312, 156, 78, 39, 20, 10, 5, 2.5, 1.25, 0.625 μg/mL. 100% DMSO was used as a positive control (well 12). This was the compound stock plate.
(§6) Aspergillus fumigatus ATCC-MYA-4609; Aspergillus flavus ATCC MYA-1004 frozen at −80° C. were streaked on SDA plates and incubated aerobically in a 30±2° C. incubator for 6 days.
(§7) For strains Aspergillus fumigatus ATCC MYA-4609; Aspergillus flavus ATCC MYA-1004, after taking out the plate, 3 mL of 0.9% normal saline containing 0.1% Tween20 was added to the plate and the spores were gently collected. The spores were counted with a hemocytometer and the spore suspension was adjusted to about 5×10^6 spores/mL. Then the spore suspension was diluted to 0.8 to 1×10^5 spores/mL with a test medium.
(§8) 2 μL of 100× working solution from the compound stock plate (prepared in 3.1) was transferred to a round-bottomed 96-well plate (containing 98 μL of test medium), and then 100 μL of fungus inoculum (prepared in 3.2) was added to each well to obtain a MIC test plate. Therefore, the final test concentrations of the compounds were 6.24, 3.12, 1.56, 0.78, 0.39, 0.20, 0.10, 0.05, 0.025, 0.0125, 0.006 μg/mL. 1% DMSO was used as a growth control.
(§9) For mold strains Aspergillus fumigatus ATCC-MYA-4609 and Aspergillus flavus ATCC MYA-1004, all test plates were incubated aerobically in a 35±° C. incubator for 48 hours.
(§10) After incubation, according to the criteria in Table 1 below, the test plate was observed by eye or microscope to determine the MIC (g/mL) and MEC (g/mL) of the test compound against yeast and mold.

[5] = system: Aspergillus fumigatus ATCC-MYA-4609; experiment: as above; assay type: cell-based; conditions: change of hyphae morphology by microscope, 48 hours, three independent experiments
Method: as §1, §2, §3, §4, §5, §6, §7, §8, §9, §10

In the case of `Nc1ccc(C#CCc2ccc(COc3ccccn3)cc2)cn1` [WX004], the “reduction of fungal load in the vaginal lavage fluid compared with the Vehicle group” value [1] is reported as 2.5 lg, the “reduction of fungal load in the vaginal tissue compared with the Vehicle group” value [1] is reported as 2.7 lg and the “protection from death caused by candidemia” value ([2]; 26 mg/kg intraperitoneally once a day for 7 days after 50 mg/kg ABT orally, n=5) is reported as “completely protect”. For the same compound, the survival rate ([2]; 6 mpk intraperitoneally once a day for 7 days after ABT orally, n=8) was 100%, the AUC ([3]; 1 mg/kg, IV, 1 mpk) was 2.8 µM·h and the Vd ([3]; 1 mg/kg, IV, 1 mpk) was 2.8 L/kg. For the same compound, the clearance ([3]; 1 mg/kg, IV, 1 mpk) was 21 mL/min/kg, the half-life ([3]; 1 mg/kg, IV, 1 mpk) was 2.5 h and the AUC ([3]; 10 mg/kg, PO, 10 mpk) was 14 µM·h. For the same compound, the Cmax ([3]; 10 mg/kg, PO, 10 mpk) was 6.5 µM, the Tmax ([3]; 10 mg/kg, PO, 10 mpk) was 0.75 h and the bioavailability ([3]; 10 mg/kg, PO, 10 mpk) was 51%. For the same compound, the MEC [4] was 0.39 µg/mL and 0.78 µg/mL and the MEC [5] was 0.1 µg/mL.
